Test results as given in article PMC10824102, “Identification of small molecule inhibitors of G3BP-driven stress granule formation” (The Journal of Cell Biology, 2024).

How the values were obtained:
[1] = system: VCP A232E-induced stress granules in U2OS cells with tdTomato-tagged endogenous G3BP1; assay: Dissolution of stress granules induced by GFP-VCP A232E expression; type: cell-based; conditions: 50 μM for 30 min; automated puncta tracking for G3Ia, manual blinded cell tracking for G3Ib
Procedure: U2OS cells with knock-in of G3BP1-tdTomato ([Yang et al., 2020]) were seeded into 96-well plates (3904; Corning). Either GFP-VCP-A232E or GFP-FUS-R495X were transfected into cells using ViaFect transfection reagent (Promega) 24 h prior to the start of the experiment. For samples to be treated with compounds G3Ia or G3Ia′, Hoechst (1:5,000; Biotium) was added and incubated for 30 min prior to the start of the experiment, washed once with PBS, and the media was changed to 100 μl FluoroBrite DMEM media (Gibco) upon starting the experiment. Imaging of plates was performed on a Cytation C10 spinning disk confocal (BioTek) with a Hamamatsu Orca-Flash 4.0 camera using Gen5 software (version 3.11). Imaging was performed through an Olympus Plan Apo 40× 0.6 NA dry objective with an adjustable collar set to 0.5 μm thickness. Laser autofocus prior to imaging the tdTomato channel was utilized for each image. The temperature was maintained at 37°C on the instrument and the cells were supplied with 5% CO2. A 7 × 7 tilescan was taken at the center of each well, capturing the tdTomato and GFP channels (and Hoechst when present). After completing the tilescan, 100 μl FluoroBrite with 100 μM (2×) G3I compound (vortexed for 5 s) was added to each well and incubated for 20 min before starting another round of imaging in the same locations as the first round. Samples treated with G3Ib or G3Ib′ were analyzed manually, scoring each cell with spontaneous granules for the presence or absence of granules following treatment with the compound. For experiments in which G3I compounds were pretreated prior to transfection, 50 μM of indicated compound or vehicle control were added to U2OS cells 20 min prior to the addition of the transfection reagent. […]
Samples treated with G3Ia or G3Ia′ were analyzed using an automated pipeline. […]

[2] = target: T1, NTF2L domain of G3BP1 (Homo sapiens, UniProt Q13283); assay: SPR binding of compounds to sensor-immobilized G3BP1; conditions: for Kd: equilibrium analysis, 1:1 binding model, 25°C, pH 7.4; for Kd of inactive enantiomer relative to active compound: SPR, same domain
T1 construct: made in house; host or cells: E. coli BL21 (DE3)
Procedure: Binding affinity for G3BP1 was measured by SPR assay using a Biacore 8K instrument (Cytiva) at 25°C at pH 7.4 (20 mM Tris, 300 mM NaCl, 0.05% Tween-20, 2% DMSO) using neutravidin sensor chips. The binding of solution phase molecules was measured to sensor-bound biotinylated, AVI-tagged versions of the NTF2L domain of G3BP1. G3BP1 was captured on the sensor surface at the beginning of each experiment at a level of ∼1,000 RU. A neutravidin-only surface was used as a reference. Binding affinity was measured by equilibrium analysis of double-reference subtracted data performed at seven different analyte concentrations. A 1:1 binding model was used to estimate affinity; the maximum binding response was typically about 90% of the theoretical maximum for a 1:1 interaction given the size of the protein and analytes. Binding at the end of a 90-s association phase was measured; data were only used where equilibrium binding was reached. No regeneration was performed between binding cycles as all tested molecules dissociated completely from the sensor at the end of each cycle. Estimation of binding affinity by kinetic analysis was not performed as kinetic constants were beyond the range that could be reliably measured by the instrumentation.

[3] = system: stress granule formation in WT cell line with endogenous G3BP1; assay: Stress granule formation in WT cell line with endogenous G3BP1 (immunofluorescence); type: cell-based; conditions: Figure S2H: 50 μM, 250 μM NaAsO2 for 30 min
Procedure: U2OS cells or U2OS cells stably expressing G3BP1-GFP were seeded in four-well Lab-Tek II Chambered Coverglass (1055360; Thermo Fisher Scientific). For preincubation experiments, cells were treated with 50 μM G3I compound for 20 min or 24 h, followed by 250 μM NaAsO2 and 50 μM G3I compound for 30 min. For posttreatment, cells were treated with 250 μM NaAsO2 for 30 min, followed by treatment with 250 μM NaAsO2 and 50 μM G3I compound for 5 min. Cells were then washed twice with PBS and fixed with 4% PFA in PBS for 10 min. Cells were then washed three times with PBS (5 min between each wash), permeabilized with 0.5% Triton X-100 in PBS for 10 min, and washed twice with PBS. Next, cells were blocked for 1 h with 3% BSA in PBS at room temperature, followed by incubation with primary antibodies diluted in 3% BSA overnight at 4°C. Cells were then washed three times with PBS (5 min between each wash) and incubated with secondary antibodies and Hoechst diluted in 3% BSA at room temperature for 1 h. Cells were then washed three times with PBS (5 min between each wash) and imaged. Primary antibodies were as follows: G3BP1 (Cat# 611127, RRID:AB_398438; BD Biosciences) at 1:200; TDP-43 (Cat# 12892-1-AP, RRID:AB_2200505; Proteintech) at 1:50; eIF3η (Cat# sc-137214, RRID:AB_2277705; Santa Cruz Biotechnology) at 1:100 dilution; PABP (Cat# ab21060, RRID:AB_777008; Abcam) at 1:1,000 dilution; and FXR1 (Cat# ab51970, RRID:AB_880113; Abcam) at 1:100 dilution. Secondary antibodies were as follows: donkey anti-mouse Alexa Fluor 647 (Cat# A-31571, RRID:AB_162542; Thermo Fisher Scientific), donkey anti-rabbit Alexa Fluor 555 (Cat# A-31572 [also A31572], RRID:AB_162543; Thermo Fisher Scientific), and donkey anti-goat Alexa Fluor 555 (Cat# A-21432 [also A21432], RRID:AB_2535853; Thermo Fisher Scientific). Nuclei were stained with Hoechst 33342 (40046; Biotium) at 1:10,000 dilution. All imaging was acquired on a Yokogawa CSU W1 spinning disk attached to a Nikon Ti2 eclipse with a Photometrics Prime 95B camera using Nikon Elements software (versions 5.20.00 to 5.21.02). Imaging was performed through a Nikon Plan Apo 60× 1.40 NA oil objective with Immersol 518 F (refractive index 1.518; Zeiss), and Perfect Focus 2.0 (Nikon) was engaged for all captures.

[4] = system: stress granule formation in U2OS cells; assay: 24 h pretreatment followed by arsenite, immunofluorescence; type: cell-based; conditions: then 500 μM NaAsO2 for 30 min

T1 sequence (Q13283 11-133 limits assumed): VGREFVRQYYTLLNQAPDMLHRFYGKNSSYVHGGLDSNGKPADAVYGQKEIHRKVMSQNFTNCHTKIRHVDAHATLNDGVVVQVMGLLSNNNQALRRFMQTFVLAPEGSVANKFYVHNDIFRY

Row | Structure (SMILES) | dissolution of VCP A232E-induced stress granules [1] [%] | Kd [2] [µM] | stress granule formation by endogenous G3BP signal [3] | stress granule formation after 24 h pretreatment ([4]; 5 μM) | stress granule formation after 24 h pretreatment ([4]; 20 μM) | stress granule formation after 24 h pretreatment ([4]; 50 μM) | Kd of inactive enantiomer relative to active compound [2] [fold] | stress granule formation after 24 h pretreatment ([4]; indicated doses)
1 | COCCC(NC(=O)C(C)NC(=O)C(NC(=O)C(NC(=O)C(F)CC(C)(C)C)C(C)(C)O)C(C)c1ccccc1)C(=O)N(C)Cc1ccccc1 (centres unmarked) [G3Ia] | 83 | 0.54 | effectively blocked stress granule formation | no substantial impairment | no substantial impairment | inhibited stress granule formation |  | 
2 | COCCC(NC(=O)C(C)NC(=O)C(NC(=O)C(NC(=O)C(F)CC(C)(C)C)C(C)(C)O)C(C)c1ccccc1)C(=O)N(C)Cc1ccccc1 (centres unmarked) [G3Ia′] |  | 75.5 | not |  |  |  | > 100 | no discernable effects
3 | CC(NC(=O)C(NC(=O)C(NC(=O)CCC(C)(C)C)C(C)(C)O)C(C)c1ccccc1)C(=O)N1CCCC1c1ccccc1 (centres unmarked) [G3Ib] | 69 | 0.15 | effectively blocked stress granule formation |  | nearly completely inhibited | nearly completely inhibited |  | 
4 | CC(NC(=O)C(NC(=O)C(NC(=O)CCC(C)(C)C)C(C)(C)O)C(C)c1ccccc1)C(=O)N1CCCC1c1ccccc1 (centres unmarked) [G3Ib′] | 6 | 44.5 | not |  |  |  | > 100 | no discernable effects
